# Experimental data published in PMC3568910, “P2X7 Receptor Activation Induces Reactive Oxygen Species Formation and Cell Death in Murine EOC13 Microglia” (Mediators of Inflammation, 2013).
# Where “and” joins values, the source holds several entries; their conditions need not be identical. Equal values may be shown once. Entries after “also recorded” stand apart in the source; their conditions may differ. Read-outs that look alike come from different tables or passages of the source.
# Assays:
# P2X7 [1] = molecular target: T1, P2X7 (Mus musculus, UniProt Q9Z1M0); experiment: Fixed-time ethidium+ uptake assay (flow cytometry) in J774 macrophage cells; format: cell-based, murine; settings: for ethidium+ uptake compared to absence of nucleotide: 5 min
# T1 construct: endogenous in cells; host or cells: EOC13 murine microglial cell line
# T1 sequence (Q9Z1M0 1-595): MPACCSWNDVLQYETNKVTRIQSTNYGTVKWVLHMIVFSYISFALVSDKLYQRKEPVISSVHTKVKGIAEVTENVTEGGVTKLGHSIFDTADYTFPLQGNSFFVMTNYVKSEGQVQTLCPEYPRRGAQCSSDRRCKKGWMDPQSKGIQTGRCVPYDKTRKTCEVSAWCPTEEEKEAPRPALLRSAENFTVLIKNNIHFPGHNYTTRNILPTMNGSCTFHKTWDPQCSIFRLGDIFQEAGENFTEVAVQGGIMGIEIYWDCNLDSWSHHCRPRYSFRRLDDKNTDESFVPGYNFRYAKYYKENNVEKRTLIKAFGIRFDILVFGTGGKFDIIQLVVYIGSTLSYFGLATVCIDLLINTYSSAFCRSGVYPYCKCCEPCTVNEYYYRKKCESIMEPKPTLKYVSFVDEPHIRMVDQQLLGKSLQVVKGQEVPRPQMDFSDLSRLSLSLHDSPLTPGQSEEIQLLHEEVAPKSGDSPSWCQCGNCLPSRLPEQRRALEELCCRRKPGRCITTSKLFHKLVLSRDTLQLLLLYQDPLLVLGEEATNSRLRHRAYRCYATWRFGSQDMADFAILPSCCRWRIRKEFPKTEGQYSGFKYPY
# P2X7 [2] = molecular target: T1, P2X7; experiment: Fixed-time ethidium+ uptake assay (flow cytometry) in EOC13 microglial cells; format: cell-based, murine; settings: for impairment of ATP-induced ethidium+ uptake: 15 min preincubation
# EOC13 cells [3] = experiment: Cell viability assessed by forward and side scatter (gated viable cells); format: cell-based, murine; settings: for reduction of the amount of gated viable cells: ethidium+ uptake assay; for cell viability (forward and side scatter): 10 μM
# EOC13 cells [4] = test system: EOC13 cells
# EOC13 cells [5] = experiment: cells; settings: Mus musculus, read-out: inhibition of ATP-induced ROS formation, EOC13 cells, 40 mM NAC, 30 min preincubation, 1.4 mM ATP, NaCl medium
# EOC13 cells [6] = experiment: Cell morphology by DIC imaging; format: cell-based, murine
# Protocol: (§1) Following the 24 h incubations, cells were harvested from wells using 0.05% trypsin (5 min, 37°C) and washed once with Annexin-V binding medium (NaCl medium containing 5 mM CaCl2). Cells were then incubated with Annexin-V binding medium containing Annexin-V-Fluorescein and 7AAD at room temperature protected from light for 15 min. […] Quadrant markers were used to determine the percentage of Annexin-V^+/7AAD^−, Annexin-V^−/7AAD^+, and Annexin-V^+/7AAD^+ cells. In some experiments, cells prior to harvesting were visualised by DIC imaging to examine cell morphology, and DIC images captured as outlined in Section 2.8.
# EOC13 cells [7] = experiment: cells; format: cell-based
# Protocol: as §1
# EOC13 cells [8] = experiment: NO formation assay (DAF-FM DA, flow cytometry) in EOC13 cells; format: cell-based, murine
# Excerpt: The medium was removed, and the cells were washed once.
# P2X7 [9] = test system: P2X7; design: method as in PMID 18657557; settings: read-out: half maximal effective concentration (EC50) of ATP for P2X7 activation; cited from earlier work
# P2X7 [10] = molecular target: T1, P2X7; experiment: Fixed-time YO-PRO-1 2+ uptake assay (flow cytometry) in EOC13 microglial cells; format: cell-based, murine; settings: 10 μM
# [11] = EOC13 cells, antagonist 30 μM, 1 mM ATP
# [12] = read-out: IC50 for impairment of 1 mM ATP-induced ethidium+ uptake, J774 cells, NaCl medium, 15 min preincubation, 1 mM ATP 5 min, 37°C
compound,measurement,setting,value
"CCOc1ccc(Nc2ccc(/C(=C3C=C/C(=[N+](/CC)Cc4cccc(S(=O)(=O)[O-])c4)C=C/3C)c3ccc(N(CC)Cc4cccc(S(=O)(=O)O)c4)cc3C)cc2)cc1 [BBG, Brilliant Blue G]",IC50,P2X7 [1],1.8 ± 0.2 µM
same,type of antagonism at the ATP concentration used,"P2X7 [1]; J774 cells, 1 mM ATP",partial antagonists
same,impairment of ATP-induced ethidium+ uptake,P2X7 [2]; [11],75 ± 2%
O=C1CSC(=O)N1C(CCc1ccncc1)COc1ccc(-c2cccc([N+](=O)[O-])c2)cc1 (centres unmarked) [AZ11645373],reduction of the amount of gated viable cells,EOC13 cells [3]; 30 μM,~ 30%
same,type of antagonism at the ATP concentration used,"P2X7 [1]; J774 cells, 1 mM ATP",partial antagonists
same,IC50,P2X7 [1]; [12],1.5 ± 0.1 µM
same,effect on basal ethidium+ uptake,"P2X7 [2]; EOC13 cells, absence of ATP, antagonist at concentration used (10-100 μM)",significantly altered
same,impairment of ATP-induced ethidium+ uptake,P2X7 [2]; [11],99 ± 1%
2′(3′)-O-(4-benzoylbenzoyl) ATP [BzATP],ethidium+ uptake compared to absence of nucleotide,"P2X7 [1]; J774 cells, 0.1 mM BzATP",induced significant ethidium^+ uptake
same,ethidium+ uptake compared to absence of nucleotide,"P2X7 [2]; EOC13 cells, 0.1 mM BzATP, 5 min",induce significant ethidium^+ uptake
Clc1cccc(-c2nnnn2Cc2cccnc2)c1Cl [A438079],inhibition of ATP-induced ethidium+ uptake,"P2X7 [1]; J774 cells, antagonist 100 μM, 1 mM ATP",completely inhibited
same,IC50,P2X7 [1]; [12],7.9 ± 0.4 µM
same,impairment of ATP-induced ethidium+ uptake,"P2X7 [2]; EOC13 cells, antagonist 100 μM, 1 mM ATP",90 ± 1%
"CC(=O)N[C@@H](CS)C(=O)O [NAC, N-acetyl-L-cysteine]",reduction of the amount of gated viable cells,"EOC13 cells [3]; incubation with 40 mM NAC and ATP together, not either compound alone",~ 40%
same,inhibition of ATP-induced ROS formation,"EOC13 cells [4]; 40 mM NAC, 30 min preincubation, 1.4 mM ATP, NaCl medium",74%
same,inhibition at 40000 µM,EOC13 cells [5],73.7 ± 0.3%
same,effect on ATP-associated morphological changes (DIC),"EOC13 cells [6]; 40 mM NAC 90 min, 2 mM ATP final 45 min, then 24 h",prevented the morphological changes associated with ATP incubation
same,effect on cell morphology (DIC),"EOC13 cells [6]; ROS assay conditions, 40 mM NAC with or without 1.4 mM ATP",not altered by NAC
same,"effect on cell morphology (DIC), NAC alone","EOC13 cells [6]; cell death assay conditions, 40 mM NAC 90 min, then 24 h",no effect on cell morphology
same,inhibition at 40000 µM,"P2X7 [2]; P2X7, read-out: inhibition of ATP-induced ethidium+ uptake (pore formation)",30 ± 2%
same,effect on percentage of ATP-induced cell death,"EOC13 cells [7]; EOC13 cells, 40 mM NAC, 75 and 30 min preincubation followed by 15 and 60 min 2 mM ATP, respectively",had no effect
same,inhibition at 40000 µM,"EOC13 cells [7]; Mus musculus, read-out: inhibition of ATP-induced cell death",99 ± 6%
"Nc1ncnc2c1ncn2[C@@H]1O[C@H](COP(=O)(O)OP(=O)(O)OP(=O)(O)O)[C@@H](O)[C@H]1O [ATP, adenosine-5′-triphosphate]",ethidium+ uptake compared to absence of nucleotide,"P2X7 [1]; J774 cells, 1 mM ATP",induced significant ethidium^+ uptake
same,ROS formation compared to absence of ATP,"EOC13 cells [4]; 575 μM ATP4- (1.4 or 2 mM ATP), NaCl medium in absence and presence of 1 mM Ca2+",induced significant ROS formation
same,ROS formation compared to absence of ATP,"EOC13 cells [4]; 1.4 mM ATP, NaCl and KCl media",induced significant ROS formation
same,ROS formation compared to absence of ATP,"EOC13 cells [4]; 1.4 mM ATP, NaCl medium, 15 min (NAC experiment control)",induced significant ROS formation
same,ROS formation compared to absence of ATP,"EOC13 cells [4]; 1.4 mM ATP, absence and presence of 100 μM EGTA",significant but similar amounts of ROS formation
same,MFI of ROS formation,"EOC13 cells [4]; 2 mM ATP, NaCl medium with 1 mM Ca2+, 15 min, absence of ATP 5.18 ± 0.06",16.3 ± 0.6
same,ATP concentrations inducing significant ROS formation,"EOC13 cells [4]; complete DMEM medium, 15 min",2 or 3 but not 1 mM ATP
same,NO formation compared to absence of ATP,"EOC13 cells [8]; 1.4 mM ATP, 15 min, NaCl medium",induced significant NO formation
same,EC50,P2X7 [9],100 to 300 µM
same,ethidium+ uptake compared to absence of nucleotide,"P2X7 [2]; EOC13 cells, 1 mM ATP, 5 min",induce significant ethidium^+ uptake
same,EC50,"P2X7 [2]; EOC13 cells, NaCl medium, 5 min, 37°C, read-out: EC50 for induction of ethidium+ uptake",~130 µM and 130 µM
same,duration of transient ATP incubation giving significant cell death,"EOC13 cells [7]; EOC13 cells, 2 mM ATP, then fresh medium 24 h",30 or 60 min but not 15 min and 30–60 but not 15 min
same,ATP concentrations giving significantly higher total cell death than absence of ATP,"EOC13 cells [7]; EOC13 cells, complete DMEM medium, 24 h",2 or 3 mM ATP but not 1 mM ATP and 2 or 3 but not 1 mM ATP
"c1ccc2c(c1)[I+]c1ccccc1-2 [DPI, diphenyleneiodonium]",cell death on preincubation,"EOC13 cells [4]; 5–40 μM DPI, 30 min preincubation, data not shown",high amounts of cell death; also recorded: induced the death of EOC13 microglia
O=C(CC12CC3CC(CC(C3)C1)C2)Nc1cccc2nc(NCCNCCO)ccc12 [AZ10606120],cell viability (forward and side scatter),EOC13 cells [3]; NO assay,did not significantly alter
same,cell viability (forward and side scatter),EOC13 cells [3]; ROS assay,did not significantly alter
same,inhibition of ATP-induced ethidium+ uptake,"P2X7 [1]; J774 cells, antagonist 10 μM, 1 mM ATP",completely inhibited
same,IC50,P2X7 [1]; [12],1 ± 0.1 µM
same,inhibition of ATP-induced ROS formation,"EOC13 cells [4]; 10 μM, 15 min preincubation, 2 mM ATP, NaCl medium with 1 mM Ca2+",complete inhibition; also recorded: completely impaired
same,inhibition of ATP-induced ROS formation,"EOC13 cells [4]; 10 μM, 15 min preincubation, 2 mM ATP, complete DMEM medium",completely inhibited
same,effect on basal ROS formation,"EOC13 cells [4]; 10 μM, absence of ATP",did not significantly alter
same,inhibition of ATP-induced NO formation,"EOC13 cells [8]; 10 μM, 15 min preincubation, 1.4 mM ATP",82 ± 11%
same,effect on basal NO formation,"EOC13 cells [8]; 10 μM, absence of ATP",did not significantly alter
same,inhibition of ATP-induced YO-PRO-1 2+ uptake,"P2X7 [10]; 15 min preincubation, 1 mM ATP",complete inhibition
same,effect on basal YO-PRO-1 2+ uptake,P2X7 [10]; absence of ATP,did not significantly alter
